PubChem BioAssay (NCI)
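Five concentrations, 48 hours, 96-well plates. TGI denotes the concentration required for complete inhibition of growth.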

Assays:
Assay in all cases: NCI tumour cell line growth inhibition, 48 h
KM12 colon = system: KM12 colon
SK-MEL-2 melanoma = system: SK-MEL-2 melanoma
IGROV1 ovarian = system: IGROV1 ovarian
MOLT-4 leukemia = system: MOLT-4 leukemia
A549 NSCLC = system: A549 NSCLC
HOP-18 NSCLC = system: HOP-18 NSCLC
COLO 205 colon = system: COLO 205 colon
NCI/ADR-RES ovarian = system: NCI/ADR-RES ovarian
UACC-62 melanoma = system: UACC-62 melanoma
UO-31 renal = system: UO-31 renal
OVCAR-4 ovarian = system: OVCAR-4 ovarian
NCI-H23 lung = system: NCI-H23 lung
HCT-15 colon = system: HCT-15 colon
SN12C renal = system: SN12C renal
P388/ADR leukemia = system: P388/ADR leukemia
K-562 leukemia = system: K-562 leukemia
U251 CNS = system: U251 CNS
NCI-H226 lung = system: NCI-H226 lung
HCC-2998 colon = system: HCC-2998 colon
CCRF-CEM leukemia = system: CCRF-CEM leukemia
UACC-257 melanoma = system: UACC-257 melanoma
CAKI-1 renal = system: CAKI-1 renal
NCI-H460 lung = system: NCI-H460 lung
HCT-116 colon = system: HCT-116 colon
HOP-62 NSCLC = system: HOP-62 NSCLC
SK-MEL-28 melanoma = system: SK-MEL-28 melanoma
SF-295 CNS = system: SF-295 CNS
RPMI-8226 leukemia = system: RPMI-8226 leukemia
MALME-3M melanoma = system: MALME-3M melanoma
OVCAR-8 ovarian = system: OVCAR-8 ovarian
SNB-78 CNS = system: SNB-78 CNS
SNB-19 CNS = system: SNB-19 CNS
M19-MEL melanoma = system: M19-MEL melanoma
SK-MEL-5 melanoma = system: SK-MEL-5 melanoma
P388 leukemia = system: P388 leukemia
SK-OV-3 ovarian = system: SK-OV-3 ovarian
RXF 393 renal = system: RXF 393 renal
DLD-1 colon = system: DLD-1 colon
MCF7 breast = system: MCF7 breast
LOX IMVI melanoma = system: LOX IMVI melanoma
SF-268 CNS = system: SF-268 CNS
SF-539 CNS = system: SF-539 CNS
NCI-H522 lung = system: NCI-H522 lung
DMS 114 small cell lung = system: DMS 114 small cell lung
HL-60(TB) leukemia = system: HL-60(TB) leukemia
OVCAR-3 ovarian = system: OVCAR-3 ovarian
HOP-92 NSCLC = system: HOP-92 NSCLC
SNB-75 CNS = system: SNB-75 CNS
KM20L2 colon = system: KM20L2 colon
OVCAR-5 ovarian = system: OVCAR-5 ovarian
EKVX NSCLC = system: EKVX NSCLC
SN12K1 renal = system: SN12K1 renal
HT29 colon = system: HT29 colon
SW-620 colon = system: SW-620 colon
DMS 273 small cell lung = system: DMS 273 small cell lung
LXFL 529 NSCLC = system: LXFL 529 NSCLC
ACHN renal = system: ACHN renal
XF 498 CNS = system: XF 498 CNS
786-0 renal = system: 786-0 renal
TK-10 renal = system: TK-10 renal
RXF-631 renal = system: RXF-631 renal
M14 melanoma = system: M14 melanoma
SR leukemia = system: SR leukemia
A498 renal = system: A498 renal

`Nc1nc2c(c(=O)[nH]1)N(C=O)C(CNc1ccc(C(=O)N[C@@H](CCC(=O)O)C(=O)O)cc1)CN2` (stereo partly drawn) showed a TGI (KM12 colon) greater than 125 µM, a TGI (SK-MEL-2 melanoma) of 49.1 µM and a TGI (IGROV1 ovarian) greater than 125 µM. It also gave a TGI (MOLT-4 leukemia) greater than 125 µM, a TGI (A549 NSCLC) greater than 125 µM and a TGI (HOP-18 NSCLC) greater than 125 µM. For the same compound, the TGI (COLO 205 colon) was greater than 125 µM, the TGI (NCI/ADR-RES ovarian) was greater than 125 µM and the TGI (UACC-62 melanoma) was greater than 125 µM. The TGI (UO-31 renal) was greater than 125 µM, the TGI (OVCAR-4 ovarian) was greater than 125 µM and the TGI (NCI-H23 lung) was greater than 125 µM. It also gave a TGI (HCT-15 colon) greater than 125 µM, a TGI (SN12C renal) greater than 125 µM and a TGI (P388/ADR leukemia) greater than 125 µM. It also gave a TGI (K-562 leukemia) greater than 31.4 µM, a TGI (U251 CNS) greater than 125 µM and a TGI (NCI-H226 lung) greater than 125 µM. It also gave a TGI (HCC-2998 colon) greater than 125 µM, a TGI (CCRF-CEM leukemia) greater than 31.4 µM and a TGI (UACC-257 melanoma) greater than 125 µM. It also gave a TGI (CAKI-1 renal) greater than 125 µM, a TGI (NCI-H460 lung) greater than 125 µM and a TGI (HCT-116 colon) greater than 125 µM. The TGI (HOP-62 NSCLC) was greater than 125 µM, the TGI (SK-MEL-28 melanoma) was greater than 125 µM and the TGI (SF-295 CNS) was greater than 125 µM. For the same compound, the TGI (RPMI-8226 leukemia) was greater than 125 µM, the TGI (MALME-3M melanoma) was greater than 125 µM and the TGI (OVCAR-8 ovarian) was greater than 125 µM. For the same compound, the TGI (SNB-78 CNS) was greater than 125 µM, the TGI (SNB-19 CNS) was greater than 125 µM and the TGI (M19-MEL melanoma) was greater than 125 µM. It also gave a TGI (SK-MEL-5 melanoma) greater than 125 µM, a TGI (P388 leukemia) greater than 125 µM and a TGI (SK-OV-3 ovarian) greater than 125 µM. It also gave a TGI (RXF 393 renal) greater than 125 µM, a TGI (DLD-1 colon) greater than 125 µM and a TGI (MCF7 breast) greater than 125 µM. For the same compound, the TGI (LOX IMVI melanoma) was greater than 125 µM, the TGI (SF-268 CNS) was greater than 125 µM and the TGI (SF-539 CNS) was greater than 125 µM. It also gave a TGI (NCI-H522 lung) greater than 125 µM, a TGI (DMS 114 small cell lung) greater than 125 µM and a TGI (HL-60(TB) leukemia) greater than 31.4 µM. It also gave a TGI (OVCAR-3 ovarian) greater than 125 µM, a TGI (HOP-92 NSCLC) greater than 125 µM and a TGI (SNB-75 CNS) greater than 125 µM. The TGI (KM20L2 colon) was greater than 125 µM, the TGI (OVCAR-5 ovarian) was greater than 125 µM and the TGI (EKVX NSCLC) was greater than 125 µM. For the same compound, the TGI (SN12K1 renal) was greater than 125 µM, the TGI (HT29 colon) was greater than 125 µM and the TGI (SW-620 colon) was greater than 125 µM. For the same compound, the TGI (DMS 273 small cell lung) was greater than 125 µM.
In the case of `CCCCCCCC(=O)OC(CBr)COC(=O)C(C)(C)C` (stereo not drawn), the TGI (KM12 colon) is reported as greater than 100 µM, the TGI (SK-MEL-2 melanoma) is reported as greater than 100 µM and the TGI (IGROV1 ovarian) is reported as greater than 100 µM. For the same compound, the TGI (MOLT-4 leukemia) was 75.2 µM, the TGI (A549 NSCLC) was greater than 100 µM and the TGI (HOP-18 NSCLC) was greater than 100 µM. The TGI (COLO 205 colon) was greater than 100 µM, the TGI (UACC-62 melanoma) was greater than 100 µM and the TGI (LXFL 529 NSCLC) was greater than 100 µM. For the same compound, the TGI (UO-31 renal) was greater than 100 µM, the TGI (OVCAR-4 ovarian) was greater than 100 µM and the TGI (NCI-H23 lung) was greater than 100 µM. The TGI (HCT-15 colon) was greater than 100 µM, the TGI (SN12C renal) was greater than 100 µM and the TGI (ACHN renal) was greater than 100 µM. For the same compound, the TGI (K-562 leukemia) was greater than 100 µM, the TGI (U251 CNS) was greater than 100 µM and the TGI (NCI-H226 lung) was greater than 100 µM. The TGI (HCC-2998 colon) was greater than 100 µM, the TGI (CCRF-CEM leukemia) was greater than 87.2 µM and the TGI (UACC-257 melanoma) was greater than 100 µM. The TGI (CAKI-1 renal) was greater than 100 µM, the TGI (XF 498 CNS) was greater than 100 µM and the TGI (NCI-H460 lung) was greater than 100 µM. It also gave a TGI (HCT-116 colon) greater than 100 µM, a TGI (786-0 renal) greater than 100 µM and a TGI (HOP-62 NSCLC) greater than 100 µM. It also gave a TGI (SK-MEL-28 melanoma) greater than 100 µM, a TGI (SF-295 CNS) greater than 100 µM and a TGI (RPMI-8226 leukemia) greater than 71.2 µM. It also gave a TGI (MALME-3M melanoma) greater than 100 µM, a TGI (OVCAR-8 ovarian) greater than 100 µM and a TGI (SNB-78 CNS) greater than 100 µM. The TGI (SNB-19 CNS) was greater than 100 µM, the TGI (M19-MEL melanoma) was greater than 100 µM and the TGI (SK-MEL-5 melanoma) was greater than 100 µM. The TGI (SK-OV-3 ovarian) was greater than 100 µM, the TGI (RXF 393 renal) was greater than 100 µM and the TGI (DLD-1 colon) was greater than 100 µM. For the same compound, the TGI (LOX IMVI melanoma) was greater than 100 µM, the TGI (SF-268 CNS) was greater than 100 µM and the TGI (NCI-H522 lung) was greater than 100 µM. It also gave a TGI (DMS 114 small cell lung) greater than 100 µM, a TGI (HL-60(TB) leukemia) greater than 100 µM and a TGI (OVCAR-3 ovarian) greater than 100 µM. The TGI (HOP-92 NSCLC) was greater than 100 µM, the TGI (SNB-75 CNS) was 68.8 µM and the TGI (TK-10 renal) was greater than 100 µM. The TGI (KM20L2 colon) was greater than 100 µM, the TGI (OVCAR-5 ovarian) was greater than 100 µM and the TGI (RXF-631 renal) was greater than 100 µM. It also gave a TGI (M14 melanoma) greater than 100 µM, a TGI (EKVX NSCLC) greater than 100 µM and a TGI (SR leukemia) of 57.1 µM. The TGI (A498 renal) was greater than 100 µM, the TGI (HT29 colon) was greater than 100 µM and the TGI (SW-620 colon) was greater than 100 µM. It also gave a TGI (DMS 273 small cell lung) greater than 100 µM.
